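Briefly, cells in 96-well plates were exposed to five compound concentrations for 48 h, and endpoints were estimated by linear interpolation. GI50: concentration for 50% inhibition of growth.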 Calls of active or inactive are those of the source. Cut-off read from the data, not from the text of the source: active = GI50 up to about 1.1 µM and inactive = higher.
Tests used:
Test in all cases: NCI anticancer screen, dose series, 48 h
M14 = system: M14
UACC-62 = system: UACC-62
KM12 = system: KM12
HCT-116 = system: HCT-116
NCI-H226 = system: NCI-H226
MDA-N = system: MDA-N
HOP-92 = system: HOP-92
U-251 = system: U-251
A498 = system: A498
MDA-MB-231 = system: MDA-MB-231
HCC 2998 = system: HCC 2998
NCI/ADR-RES = system: NCI/ADR-RES
ACHN = system: ACHN
SK-MEL-28 = system: SK-MEL-28
RXF 393 = system: RXF 393
786-0 = system: 786-0
OVCAR-3 = system: OVCAR-3
HOP-62 = system: HOP-62
BT-549 = system: BT-549
NCI-H23 = system: NCI-H23
SN12C = system: SN12C
OVCAR-4 = system: OVCAR-4
OVCAR-8 = system: OVCAR-8
HL-60 = system: HL-60
TK-10 = system: TK-10
SNB-19 = system: SNB-19
A549 = system: A549
MOLT-4 = system: MOLT-4
K562 = system: K562
SW-620 = system: SW-620
MDA-MB-435 = system: MDA-MB-435
PC-3 = system: PC-3
SF-295 = system: SF-295
EKVX = system: EKVX
CAKI-1 = system: CAKI-1
COLO 205 = system: COLO 205
NCI-H460 = system: NCI-H460
SK-MEL-2 = system: SK-MEL-2
DU-145 = system: DU-145
SK-MEL-5 = system: SK-MEL-5
HT-29 = system: HT-29
OVCAR-5 = system: OVCAR-5
CCRF-CEM = system: CCRF-CEM
RPMI-8226 = system: RPMI-8226
HCT-15 = system: HCT-15
SK-OV-3 = system: SK-OV-3
UO-31 = system: UO-31
UACC-257 = system: UACC-257
LOX IMVI = system: LOX IMVI
IGROV-1 = system: IGROV-1
MCF7 = system: MCF7
T47D = system: T47D
SF-539 = system: SF-539
SNB-75 = system: SNB-75
Malme-3M = system: Malme-3M
NCI-H522 = system: NCI-H522
SF-268 = system: SF-268
SR = system: SR

O=C(NCCO)Nc1c(C(F)(F)F)cc(-c2ccccc2)[nH]c1=O
GI50 (M14): > 100 µM (inactive) | GI50 (UACC-62): > 100 µM (inactive) | GI50 (KM12): > 100 µM (inactive) | GI50 (HCT-116): > 100 µM (inactive) | GI50 (NCI-H226): > 100 µM (inactive) | GI50 (MDA-N): > 100 µM (inactive) | GI50 (HOP-92): > 100 µM (inactive) | GI50 (U-251): > 100 µM (inactive) | GI50 (A498): > 100 µM (inactive) | GI50 (MDA-MB-231): > 100 µM (inactive) | GI50 (HCC 2998): > 100 µM (inactive) | GI50 (NCI/ADR-RES): > 100 µM (inactive) | GI50 (ACHN): > 100 µM (inactive) | GI50 (SK-MEL-28): > 100 µM (inactive) | GI50 (RXF 393): > 100 µM (inactive) | GI50 (786-0): > 100 µM (inactive) | GI50 (OVCAR-3): > 100 µM (inactive) | GI50 (HOP-62): > 100 µM (inactive) | GI50 (BT-549): > 100 µM (inactive) | GI50 (NCI-H23): > 100 µM (inactive) | GI50 (SN12C): > 100 µM (inactive) | GI50 (OVCAR-4): > 100 µM (inactive) | GI50 (OVCAR-8): > 100 µM (inactive) | GI50 (HL-60): 19.8 µM (inactive) | GI50 (TK-10): > 100 µM (inactive) | GI50 (SNB-19): > 100 µM (inactive) | GI50 (A549): > 100 µM (inactive) | GI50 (MOLT-4): > 100 µM (inactive) | GI50 (K562): > 100 µM (inactive) | GI50 (SW-620): > 100 µM (inactive) | GI50 (MDA-MB-435): > 100 µM (inactive) | GI50 (PC-3): > 100 µM (inactive) | GI50 (SF-295): > 100 µM (inactive) | GI50 (EKVX): > 100 µM (inactive) | GI50 (CAKI-1): > 100 µM (inactive) | GI50 (COLO 205): > 100 µM (inactive) | GI50 (NCI-H460): > 100 µM (inactive) | GI50 (SK-MEL-2): > 100 µM (inactive) | GI50 (DU-145): > 100 µM (inactive) | GI50 (SK-MEL-5): > 100 µM (inactive) | GI50 (HT-29): > 100 µM (inactive) | GI50 (OVCAR-5): > 100 µM (inactive) | GI50 (CCRF-CEM): > 100 µM (inactive) | GI50 (RPMI-8226): > 100 µM (inactive) | GI50 (HCT-15): > 100 µM | GI50 (SK-OV-3): > 100 µM (inactive) | GI50 (UO-31): > 100 µM (inactive) | GI50 (UACC-257): > 100 µM (inactive) | GI50 (LOX IMVI): > 100 µM (inactive) | GI50 (IGROV-1): > 100 µM (inactive) | GI50 (MCF7): > 100 µM (inactive) | GI50 (T47D): > 100 µM (inactive)

COc1c(O)c(OC)c2oc(-c3ccc(O)c(O)c3)c(OC)c(=O)c2c1O
GI50 (M14): 17.6 µM (inactive) | GI50 (UACC-62): 7.52 µM (inactive) | GI50 (KM12): 48.3 µM (inactive) | GI50 (HCT-116): 31.2 µM (inactive) | GI50 (NCI-H226): 27.4 µM (inactive) | GI50 (SF-539): 14.6 µM (inactive) | GI50 (MDA-N): 37.3 µM (inactive) | GI50 (HOP-92): 30.5 µM (inactive) | GI50 (U-251): 16.9 µM (inactive) | GI50 (A498): 31.6 µM (inactive) | GI50 (MDA-MB-231): 23.1 µM (inactive) | GI50 (HCC 2998): 29.3 µM (inactive) | GI50 (NCI/ADR-RES): 55.1 µM (inactive) | GI50 (ACHN): 31.4 µM (inactive) | GI50 (SK-MEL-28): 18.7 µM (inactive) | GI50 (786-0): 15 µM (inactive) | GI50 (OVCAR-3): 2.85 µM (inactive) | GI50 (HOP-62): 6.98 µM (inactive) | GI50 (BT-549): 6.81 µM (inactive) | GI50 (NCI-H23): 32.7 µM (inactive) | GI50 (SNB-75): 3.62 µM (inactive) | GI50 (SN12C): 56.9 µM (inactive) | GI50 (OVCAR-4): 55 µM (inactive) | GI50 (OVCAR-8): 32.1 µM (inactive) | GI50 (HL-60): 17.7 µM (inactive) | GI50 (TK-10): 30.5 µM (inactive) | GI50 (SNB-19): 53.8 µM (inactive) | GI50 (Malme-3M): 6.24 µM (inactive) | GI50 (NCI-H522): 10.5 µM (inactive) | GI50 (A549): 35.6 µM (inactive) | GI50 (MOLT-4): 28.4 µM (inactive) | GI50 (K562): 18.5 µM (inactive) | GI50 (SW-620): 36.1 µM (inactive) | GI50 (MDA-MB-435): 3.13 µM (inactive) | GI50 (PC-3): 38.9 µM (inactive) | GI50 (SF-295): 39.3 µM (inactive) | GI50 (EKVX): 29.6 µM (inactive) | GI50 (CAKI-1): 26.9 µM (inactive) | GI50 (SF-268): 3.52 µM (inactive) | GI50 (COLO 205): 27.1 µM (inactive) | GI50 (NCI-H460): 35.9 µM (inactive) | GI50 (SK-MEL-2): 5.42 µM (inactive) | GI50 (DU-145): 24.2 µM (inactive) | GI50 (SK-MEL-5): 11.8 µM (inactive) | GI50 (SR): 28.7 µM (inactive) | GI50 (HT-29): 30.7 µM (inactive) | GI50 (OVCAR-5): 38.8 µM (inactive) | GI50 (CCRF-CEM): 23.9 µM (inactive) | GI50 (RPMI-8226): 31.8 µM (inactive) | GI50 (HCT-15): 11.5 µM | GI50 (SK-OV-3): 15.9 µM (inactive) | GI50 (UO-31): 28.1 µM (inactive) | GI50 (UACC-257): 24 µM (inactive) | GI50 (LOX IMVI): 23.9 µM (inactive) | GI50 (IGROV-1): 10.4 µM (inactive) | GI50 (MCF7): 4.1 µM (inactive) | GI50 (T47D): 3.28 µM (inactive)

From ChEMBL document CHEMBL1201862, “PubChem BioAssay data set” (2004)
